Laboratory results: publication PMC6368337, “GluClR-mediated inhibitory postsynaptic currents reveal targets for ivermectin and potential mechanisms of ivermectin resistance” (PLoS Pathogens, 2019)

Assays:
[1] = tested on: homomeric α (avr-14b) GluClRs; details: cited from earlier work
α and αβ (1:1) GluClRs = assay: IVM-induced tonic current in heteroculture, α and αβ data pooled; type: cell-based, H. contortus; details: continuous 5 nM IVM
Procedure: After validating the heterocultures as a reliable preparation for investigating IPSCs mediated by GluClRs, we made synaptic recordings while continuously applying IVM (5 nM) to cells similarly transfected with α and αβ GluClRs. […] Firstly, there was a steady downward deflection in baseline current over the course of the recording that was not different between cells expressing α (Fig 5A) and αβ (1:1, Fig 5B) GluClRs. […] Changes to the kinetic properties of IPSCs were also observed upon IVM application (Fig 5C–5G). These were analysed 15 minutes after the commencement of the IVM application to ensure that the effects had equilibrated. […] The decay time constant for α GluClRs slowed from 40 ± 2 ms to 100 ± 3 ms (n = 6) and for αβ GluClRs from 17 ± 2 ms to 72 ± 4 ms (n = 6, Fig 5E). The increase in activation times were from 4.6 ± 0.7 ms to 19 ± 1 ms for α GluClRs and from 3.0 ± 0.3 ms to 10 ± 1 ms for the αβ heteromers (Fig 5F). […] A comparison of the magnitude changes of IPSC parameters was also made between the two receptor isoforms.
cDNAs encoding the α (avr-14b) (pcDNA 3.1+) or β (pUNIV) GluClR subunits of H. contortus were nuclear injected into oocytes (NASCO, WI USA) or transfected into HEK293AD cells (CellBank Australia) using a calcium phosphate-DNA co-precipitate method. […]

β GluClRs = β GluClRs (Haemonchus contortus, UniProt P91730); assay: Single channel recording, outside-out patches, β GluClRs; type: cell-based, H. contortus; details: 2 μM glutamate plus 5 nM IVM
From the text: To explore whether a similar mechanism applies to β-containing GluClRs, we recorded single receptor currents in excised patches from cells transfected with either the α and β subunits (1:1) or the β subunit alone. […] By contrast, patches from cells transfected with the β subunit alone invariably opened to an amplitude of 0.4 pA (Fig 6C). Amplitude histograms confirmed two amplitude levels for αβ GluClRs and a single amplitude for the β GluClRs (Fig 6D). […] We infer that the αβ GluClRs that open to 0.7 pA likely contain a greater proportion of β subunits. This is consistent with β GluClRs having the smallest amplitude and α GluClRs having the greatest amplitude (1.8 pA) under similar recording conditions. The calculated conductance values for the corresponding amplitudes for αβ GluClRs was 15.2 pS and 8.9 pS and for the β GluClRs was 5.1 pS.
Single-channel currents were recorded from outside-out excised patches at a clamped potential of −70 mV. The single channel conductance was calculated by dividing the mean current by the net driving force at a clamped potential of ‐70 mV, after accounting for reversal and liquid junction potentials. Excised patches were continuously perfused via a gravity-fed double-barrelled glass tube, which contained extracellular bath solution containing (in mM), 140 NaCl, 5 KCl, 1 MgCl2, 2 CaCl2, 10 HEPES, and 10 D-glucose and titrated to pH 7.4. Glutamate and IVM were dissolved in this extracellular solution. Recording electrodes were pulled from borosilicate glass (G150F-3; Warner Instruments), coated with a silicone elastomer (Sylgard-184; Dow Corning) and heat-polished to a final tip resistance of 4–15 MΩ when filled with an intracellular solution containing (in mM) 145 CsCl, 2 MgCl2, 2 CaCl2, 10 HEPES, and 5 EGTA, pH 7.4. […] A 10 mM stock of IVM (Sigma-Aldrich) was dissolved in 100% DMSO and kept frozen at ‐20°C. Fresh working stocks of IVM at 5 nM were prepared by dissolving the appropriate quantity directly in extracellular solution. 100% DMSO when dissolved in extracellular solution alone at the same concentration as was present in working solutions containing 5 nM IVM had no effect on patches excised from cells transfected with GluClRs or from untransfected cells.
Currents were recorded using an Axopatch 200B amplifier (Molecular Devices), filtered at 5 kHz and digitized at 20 kHz using Clampex (pClamp 10 suite, Molecular Devices) via a Digidata 1440A digitizer.
Group data were analysed in SigmaPlot 13.0 using one-way ANOVAs, where p < 0.05 was taken as the significance threshold and expressed as mean ± SEM. Tests for normally distributed data are built into the SigmaPlot software. Confocal images were captured and analysed with Zen 2012 SP2 (Zeiss) software. Oocyte concentration-response data were fit to a Hill equation to obtain an EC50 and Hill co-efficient for each oocyte recording. These parameters were then averaged across multiple oocyte experiments of the same type. Single channel recordings were analysed in QuB software. […] Patches yielded between 30–250 individual active periods. […] The selected critical times eliminated periods of receptor desensitisation while retaining singe receptor active periods. Mean active period duration and intra-activation open probability was estimated from each patch. Group means were obtained by averaging across multiple patches for each recording condition.

β GluClRs, sequence (P91730 19-432): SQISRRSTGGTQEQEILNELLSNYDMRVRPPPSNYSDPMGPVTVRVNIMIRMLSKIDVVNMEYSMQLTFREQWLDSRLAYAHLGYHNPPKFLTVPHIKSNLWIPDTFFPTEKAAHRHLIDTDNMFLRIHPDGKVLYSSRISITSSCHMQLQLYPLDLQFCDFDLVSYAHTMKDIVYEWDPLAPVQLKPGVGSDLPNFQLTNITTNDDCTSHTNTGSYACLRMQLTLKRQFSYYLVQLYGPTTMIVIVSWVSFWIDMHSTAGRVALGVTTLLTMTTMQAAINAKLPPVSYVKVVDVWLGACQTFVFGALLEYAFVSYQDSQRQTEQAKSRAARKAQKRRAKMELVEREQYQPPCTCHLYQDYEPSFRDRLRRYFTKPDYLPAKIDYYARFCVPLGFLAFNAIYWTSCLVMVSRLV

CC[C@H](C)[C@H]1O[C@]2(CC[C@@H]1C)C[C@@H]1C[C@@H](C/C=C(\C)[C@@H](O[C@H]3C[C@H](OC)[C@@H](O[C@H]4C[C@H](OC)[C@@H](O)[C@H](C)O4)[C@H](C)O3)[C@@H](C)/C=C/C=C3\CO[C@@H]4[C@H](O)C(C)=C[C@@H](C(=O)O1)[C@]34O)O2 [IVM, Ivermectin]
time over which single receptor active periods increase in duration after exposure [1]: 1 to 2 min | tonic current fitted time constant (α and αβ (1:1) GluClRs): 483 ± 72 s | tonic current mean amplitude (α and αβ (1:1) GluClRs): 304 ± 54 pA | intra-activation open probability (PO) (β GluClRs): 0.62 ± 0.04 | mean active period duration (β GluClRs): 120 ± 21 ms
